Measured values taken from US7166739B2, “Esters of monomethyl branched alcohols and process for preparing and using same in cosmetics and personal care products” (Finetex, Inc., priority 2004, dated 2007).

Tests used:
[1] = Surface tension of esters (typical properties); assay type: physicochemical
Description: (§1) An analysis of the esters of the invention, i.e., Benzoate ester (Ref. No. 130-63); Octanoate Ester (Ref. No. 130-67); and Maleate Ester (Ref. No. 134-26), was conducted as to appearance, color, percentage water, acidity, saponification value, surface tension, spreading coefficient, freezing point, refractive index and specific gravity. The results are presented in Table I which identifies typical properties of the esters of the invention.

[2] = Spreading coefficient of esters (typical properties); assay type: physicochemical; parameters: unit not given here
Description: as §1

[3] = Viscosity of esters (typical properties); assay type: physicochemical; settings: @ 25° C.
Description: as §1

[4] = Solubility of esters in various solvents (1 gram of ester in 10 gm. solvent)

For “Di(C16–17 alkyl) maleate [Maleate Ester (134-26)]”, the “Surface Tension” value [1] was 30.5 dynes/cm, the “Spreading Coefficient” value [2] was 34.0 and the Viscosity [3] was 80 cps. The “Solubility in Dow Corning Fluid 245/345” value [4] was “+”, the “Solubility in Ethanol” value [4] was “+” and the “Solubility in Finester EH-25” value [4] was “+”. The “Solubility in Finsolv BOD” value [4] was “+”, the “Solubility in Finsolv EB” value [4] was “+” and the “Solubility in Finsolv EMG-20” value [4] was “−”. For the same substance, the “Solubility in Finsolv P” value [4] was “+”, the “Solubility in Finsolv PG-22” value [4] was “+” and the “Solubility in Finsolv PL-62” value [4] was “+”. The “Solubility in Finsolv PL-355” value [4] was “+”, the “Solubility in Finsolv SB” value [4] was “+” and the “Solubility in Finsolv TN” value [4] was “+”. For the same substance, the “Solubility in Glycerine” value [4] was “−”, the “Solubility in IPM/IPP (Witconol 2314/2316)” value [4] was “+” and the “Solubility in Mineral Oil” value [4] was “+”. The “Solubility in Propylene Glycol” value [4] was “−” and the “Solubility in Water” value [4] was “−”.
